According to patent US7763630B2 (priority 2007, dated 2010):

What was measured:
[1] = molecular target: HIV-integrase (Human immunodeficiency virus type 1 group M subtype B, UniProt P12497); test: HIV-Integrase Inhibition Activity (SPA strand transfer assay)
Description: HIV-Integrase Inhibition Activity. To evaluate in-vitro activity against HIV-integrase, 5 pmole of biotin labeled substrate DNA was bound to 100 μg of Streptavidin coated PVT SPA beads (Amersham Pharmacia Biotech). Recombinant integrase (0.26 ng) was incubated with the beads for 90 min at 37° C. Unbound enzyme was removed by washing the complex followed by addition of inhibitors and 0.1 fmol of P33 labeled target DNA. The reaction was stopped by adding EDTA to a final concentration of 10 mM. Samples were counted in TopCountNXT (Packard) and the CPM was used as a measure of integration. […] Activity equal to A refers to a compound having IC50=0.002 to 0.10 μM while B and C denote compounds having IC50=0.1 to 1.0 μM and IC50≧1.0 μM respectively.

[2] = tested on: recombinant NL-Rluc virus; test: Inhibition of HIV replication (NL-Rluc virus); format: cell-based; conditions: Human immunodeficiency virus 1, read-out: Antiviral Activity
[3] = molecular target: purified integrase (Human immunodeficiency virus type 1 group M subtype B, UniProt P12497); test: HIV-Integrase binding assay (competition with radiolabeled compound A)
Description: HIV-Integrase binding assay. In this assay competitive binding experiments with test compounds and a radiolabeled integrase inhibitor (compound A) are performed against purified integrase. SPA bead/DNA/enzyme complexes were prepared as for the integrase inhibition assay except, to each well, 0.69 μl of integrase enzyme (0.42 mg/μl) was used per 2 μl of LTR DNA-attached scintillation proximity beads (stock 50 mg/ml). Binding reactions were carried out in 96-well white polystyrene assay plates (Corning, #3600). The following was added sequentially to each well: 20 μl of water or 20 μl of human serum (Cellgro Cat #35-060-CL), 5 μl of serially diluted compound (in 50% DMSO/50% integrase SPA buffer), 5 μl of [^3H]-compound I (6,000 cpm/μl in SPA buffer) and 20 μl of bead/DNA/enzyme complex. The plates were shaken for 2 hours and then allowed to sit at room temperature without shaking overnight. The [^3H]-compound I binding was measured using a Topcount scintillation counter. Cheng and Prusoff equations were used to convert the inhibition of compound 1 binding into the corresponding Ki value.

Cn1c(C2CCOC2)nc(C(=O)NCc2ccc(F)cc2)c(O)c1=O (stereo not drawn) [Example 1, N-(4-Fluorobenzyl)-5-hydroxy-1-methyl-6-oxo-2-(tetrahydrofuran-3-yl)-1,6-dihydropyrimidine-4-carboxamide]
IC50 [1]: 2 to 100 nM | EC50 [2]: 3 to 100 nM

Cc1cc(CNC(=O)c2nc(C3CCOC3)n(C)c(=O)c2O)ccc1F (stereo not drawn) [Example 2, N-(4-Fluoro-3-methylbenzyl)-5-hydroxy-1-methyl-6-oxo-2-(tetrahydrofuran-3-yl)-1,6-dihydropyrimidine-4-carboxamide]
IC50 [1]: 2 to 100 nM | EC50 [2]: 3 to 100 nM

Cn1c(C2CCOC2)nc(C(=O)NCc2ccc(F)cc2-n2cncn2)c(O)c1=O (stereo not drawn) [Example 3, N-(4-fluoro-2-(1H-1,2,4-triazol-1-yl)benzyl)-5-hydroxy-1-methyl-6-oxo-2-(tetrahydrofuran-3-yl)-1,6-dihydropyrimidine-4-carboxamide]
Ki [3]: 1 to 3 nM | EC50 [2]: 3 to 100 nM

Cc1ncnn1-c1cc(F)ccc1CNC(=O)c1nc(C2CCOC2)n(C)c(=O)c1O (stereo not drawn) [Example 4, N-(4-fluoro-2-(5-methyl-1H-1,2,4-triazol-1-yl)benzyl)-5-hydroxy-1-methyl-6-oxo-2-(tetrahydrofuran-3-yl)-1,6-dihydropyrimidine-4-carboxamide]
Ki [3]: 3 to 50 nM | EC50 [2]: 3 to 100 nM

Cc1cnnn1-c1cc(F)ccc1CNC(=O)c1nc(C2CCOC2)n(C)c(=O)c1O (stereo not drawn) [Example 5, N-(4-fluoro-2-(5-methyl-1H-1,2,3-triazol-1-yl)benzyl)-5-hydroxy-1-methyl-6-oxo-2-(tetrahydrofuran-3-yl)-1,6-dihydropyrimidine-4-carboxamide]
Ki [3]: 3 to 50 nM | EC50 [2]: 3 to 100 nM

Cn1ncnc1-c1cc(F)ccc1CNC(=O)c1nc(C2CCOC2)n(C)c(=O)c1O (stereo not drawn) [Example 6, N-(4-fluoro-2-(1-methyl-1H-1,2,4-triazol-5-yl)benzyl)-5-hydroxy-1-methyl-6-oxo-2-(tetrahydrofuran-3-yl)-1,6-dihydropyrimidine-4-carboxamide]
Ki [3]: 3 to 50 nM | EC50 [2]: 3 to 100 nM

Cn1c(C2CCOC2)nc(C(=O)NCc2ccc(F)cc2S(C)(=O)=O)c(O)c1=O (stereo not drawn) [Example 7, N-(4-fluoro-2-(methylsulfonyl)benzyl)-5-hydroxy-1-methyl-6-oxo-2-(tetrahydrofuran-3-yl)-1,6-dihydropyrimidine-4-carboxamide]
Ki [3]: 3 to 50 nM | EC50 [2]: 3 to 100 nM

Cn1c(C2CCOC2)nc(C(=O)NCc2ccccc2N2CCCCS2(=O)=O)c(O)c1=O (stereo not drawn) [Example 8]
Ki [3]: 3 to 50 nM | EC50 [2]: 3 to 100 nM

CN(C)S(=O)(=O)c1cc(F)ccc1CNC(=O)c1nc(C2CCOC2)n(C)c(=O)c1O (stereo not drawn) [Example 10, N-(2-(N,N-dimethylsulfamoyl)-4-fluorobenzyl)-5-hydroxy-1-methyl-6-oxo-2-(tetrahydrofuran-3-yl)-1,6-dihydropyrimidine-4-carboxamide]
Ki [3]: 3 to 50 nM | EC50 [2]: 3 to 100 nM

Cn1cnnc1-c1cc(F)ccc1CNC(=O)c1nc(C2CCOC2)n(C)c(=O)c1O (stereo not drawn) [Example 11, N-(4-fluoro-2-(4-methyl-4H-1,2,4-triazol-3-yl)benzyl)-5-hydroxy-1-methyl-6-oxo-2-(tetrahydrofuran-3-yl)-1,6-dihydropyrimidine-4-carboxamide]
Ki [3]: 1 to 3 nM | EC50 [2]: 3 to 100 nM

CN1CCN(c2cc(F)ccc2CNC(=O)c2nc(C3CCOC3)n(C)c(=O)c2O)C1=O (stereo not drawn) [Example 12, N-(4-fluoro-2-(3-methyl-2-oxoimidazolidin-1-yl)benzyl)-5-hydroxy-1-methyl-6-oxo-2-(tetrahydrofuran-3-yl)-1,6-dihydropyrimidine-4-carboxamide]
Ki [3]: 1 to 3 nM | EC50 [2]: 3 to 100 nM

COCCN1CCN(c2cc(F)ccc2CNC(=O)c2nc(C3CCOC3)n(C)c(=O)c2O)C1=O (stereo not drawn) [Example 13, N-(4-fluoro-2-(3-(2-methoxyethyl)-2-oxoimidazolidin-1-yl)benzyl)-5-hydroxy-1-methyl-6-oxo-2-(tetrahydrofuran-3-yl)-1,6-dihydropyrimidine-4-carboxamide]
Ki [3]: 1 to 3 nM | EC50 [2]: 3 to 100 nM

Cn1c(C2CCOC2)nc(C(=O)NCc2ccc(F)cc2N2CCN(CCO)C2=O)c(O)c1=O (stereo not drawn) [Example 14, N-(4-fluoro-2-(3-(2-hydroxyethyl)-2-oxoimidazolidin-1-yl)benzyl)-5-hydroxy-1-methyl-6-oxo-2-(tetrahydrofuran-3-yl)-1,6-dihydropyrimidine-4-carboxamide]
Ki [3]: 1 to 3 nM | EC50 [2]: 3 to 100 nM

Cn1c(C2COCC2O)nc(C(=O)NCc2ccc(F)cc2)c(O)c1=O (stereo not drawn) [Example 15, N-(4-Fluorobenzyl)-5-hydroxy-2-(4-hydroxytetrahydrofuran-3-yl)-1-methyl-6-oxo-1,6-dihydropyrimidine-4-carboxamide]
IC50 [1]: 2 to 100 nM | EC50 [2]: 3 to 100 nM

CSC1COCC1c1nc(C(=O)NCc2ccc(F)cc2)c(O)c(=O)n1C (stereo not drawn) [Example 16, N-(4-Fluorobenzyl)-5-hydroxy-1-methyl-2-(4-(methylthio)tetrahydrofuran-3-yl)-6-oxo-1,6-dihydropyrimidine-4-carboxamide]
IC50 [1]: 2 to 100 nM | EC50 [2]: 3 to 100 nM

Cn1c(C2CCOCC2)nc(C(=O)NCc2ccc(F)cc2)c(O)c1=O [Example 17, N-(4-Fluorobenzyl)-5-hydroxy-1-methyl-6-oxo-2-(tetrahydro-2H-pyran-4-yl)-1,6-dihydropyrimidine-4-carboxamide]
IC50 [1]: 2 to 100 nM | EC50 [2]: 3 to 100 nM

Cn1c(C2CCOCC2)nc(C(=O)NCc2ccc(F)cc2-n2cncn2)c(O)c1=O [Example 18, N-(4-fluoro-2-(1H-1,2,4-triazol-1-yl)benzyl)-5-hydroxy-1-methyl-6-oxo-2-(tetrahydro-2H-pyran-4-yl)-1,6-dihydropyrimidine-4-carboxamide]
Ki [3]: 3 to 50 nM | EC50 [2]: 3 to 100 nM

Cc1ncnn1-c1cc(F)ccc1CNC(=O)c1nc(C2CCOCC2)n(C)c(=O)c1O [Example 19, N-(4-fluoro-2-(5-methyl-1H-1,2,4-triazol-1-yl)benzyl)-5-hydroxy-1-methyl-6-oxo-2-(tetrahydro-2H-pyran-4-yl)-1,6-dihydropyrimidine-4-carboxamide]
Ki [3]: 3 to 50 nM | EC50 [2]: 3 to 100 nM

Cc1cnnn1-c1cc(F)ccc1CNC(=O)c1nc(C2CCOCC2)n(C)c(=O)c1O [Example 20, N-(4-fluoro-2-(5-methyl-1H-1,2,3-triazol-1-yl)benzyl)-5-hydroxy-1-methyl-6-oxo-2-(tetrahydro-2H-pyran-4-yl)-1,6-dihydropyrimidine-4-carboxamide]
Ki [3]: 3 to 50 nM | EC50 [2]: 3 to 100 nM

Cn1ncnc1-c1cc(F)ccc1CNC(=O)c1nc(C2CCOCC2)n(C)c(=O)c1O [Example 21, N-(4-fluoro-2-(1-methyl-1H-1,2,4-triazol-5-yl)benzyl)-5-hydroxy-1-methyl-6-oxo-2-(tetrahydro-2H-pyran-4-yl)-1,6-dihydropyrimidine-4-carboxamide]
Ki [3]: 1 to 3 nM | EC50 [2]: 3 to 100 nM

Cn1c(C2CCOCC2)nc(C(=O)NCc2ccc(F)cc2S(C)(=O)=O)c(O)c1=O [Example 22, N-(4-fluoro-2-(methylsulfonyl)benzyl)-5-hydroxy-1-methyl-6-oxo-2-(tetrahydro-2H-pyran-4-yl)-1,6-dihydropyrimidine-4-carboxamide]
Ki [3]: 3 to 50 nM | EC50 [2]: 3 to 100 nM

CN(C)S(=O)(=O)c1cc(F)ccc1CNC(=O)c1nc(C2CCOCC2)n(C)c(=O)c1O [Example 23, N-(2-(N,N-dimethylsulfamoyl)-4-fluorobenzyl)-5-hydroxy-1-methyl-6-oxo-2-(tetrahydro-2H-pyran-4-yl)-1,6-dihydropyrimidine-4-carboxamide]
Ki [3]: 3 to 50 nM | EC50 [2]: 3 to 100 nM

Cn1c(C2CCOCC2)nc(C(=O)NCc2ccccc2N2CCCCS2(=O)=O)c(O)c1=O [Example 25]
Ki [3]: 3 to 50 nM | EC50 [2]: 3 to 100 nM

Cn1cnnc1-c1cc(F)ccc1CNC(=O)c1nc(C2CCOCC2)n(C)c(=O)c1O [Example 26, N-(4-fluoro-2-(4-methyl-4H-1,2,4-triazol-3-yl)benzyl)-5-hydroxy-1-methyl-6-oxo-2-(tetrahydro-2H-pyran-4-yl)-1,6-dihydropyrimidine-4-carboxamide]
Ki [3]: 1 to 3 nM | EC50 [2]: 3 to 100 nM
